From patent US8993626B2, “Methods of treatment using sterculic acid” (The United States of America, as represented by the …, priority 2010, dated 2015) come the findings set out here.

Data set [1] concerns ARPE-19 cells. Briefly: Fatty acids against 7KCh-mediated cell death (CCK8). The data set is classed as cell-based. On the procedure: FIGS. 12A-12C depict ARPE-19 cell viability in response to 12 μM 7KCh with or without 0.1-5 μM (A) sterculic acid and (B) stearic acid after 24 hr treatments. Error bars indicate the standard deviations. n=3-5. Two-tailed Student's t-test. (C) Representative images of changes in cell morphology in response to 12 μM 7KCh with or without 1 μM sterculic acid and stearic acid after 24 hr treatments.
(§1) ARPE-19 cells were seeded in 24-well plates with 1×10^5 cells per well and allowed to recover for 16-24 hr. Once confluency reached approximately 90%, the effect of the fatty acids against 7KCh-mediated cell death was examined 24 hr after incubation in serum-free medium with 12 μM 7KCh. Fatty acids were tested at 0.1, 0.5, 1, 5 and 10 μM concentrations. The effects of the fatty acids against 7KCh-mediated inflammation and ER stress were examined by incubating cells in 1 μM fatty acids with either 8 μM 7KCh (24 hr for quantitative real-time PCR (qRT-PCR), 24 and 48 hr for immunoblot), or 6 μM 7KCh for 48 hr (for ELISA). Three individual experiments were performed for each treatment with quadruplicate measurements performed for each experiment in 24-well plates.
The cell viability was determined by the dehydrogenase activity of the ARPE-19 cells using Cell Counting Kit-8 (CCK8, Dojindo, Gaithersburg, Md.) according to manufacturer's protocol.
The lowest effective concentrations of fatty acids that offset the 7KCh-mediated cell death were determined. […] Table 3 lists the lowest concentrations of these fatty acids required to maintain full cell viability against 12 μM 7KCh treatment. All unsaturated fatty acids protected against 7KCh-induced cell death. […] DHA, α-linolenic, and linoleic acid prevented 7KCh-mediated cell death at 5 μM but the rest of unsaturated fatty acids and dihydrosterculic acid required 10 μM to be protective.

The test system of a further data set is Leukemia, HL-60 (TB). As to the kind of experiment: NCI in vitro anti-cancer cell line screen (SRB). The format is cell-based. As to conditions: Homo sapiens, 48 h.
Data set [2] has as its system ARPE19 cells. Briefly: Phase-contrast images of cells after co-treatment with 15 μM 7KCh. The data set is classed as cell-based, human. As to conditions: 1 μM fatty acid + 15 μM 7KCh, 24 hr. An excerpt: FIG. 8 depicts phase-contrast images of ARPE19 cells at 24 hr after sterculic acid co-treatment with 7KCh.
For data set [3], the system named is ARPE19 cells. Briefly: CellTiter-Glo luminescent cell viability assay, 15 μM 7KCh-induced cytotoxicity. The format is cell-based, human. As to conditions: 1 μM + 15 μM 7KCh, 24 hr. On the procedure: Error bar: standard deviation, n=4.
CellTiter-Glo® Luminescent Cell Viability Assay is a homogeneous method of determining the number of viable cells in culture based on quantitation of the ATP (luminescent signal) present, an indicator of metabolically active cells.
The contents in a plate were mixed for 2 min on an orbital shaker to induce cell lysis.
5) The plate was allowed to incubate at room temperature for 10 min to stabilize luminescent signal.
Background: Cellular ATP, detected with luciferase, serves as a proxy for viable cell number.

Data set [4] relates to ARPE-19 cells. Briefly: qRT-PCR of inflammatory cytokines and ER stress markers, 7KCh-mediated inflammation. The format is cell-based. The protocol:
FIGS. 13A-13D depict mRNA expressions of (A) VEGF, (B) IL-6, (C) GRP78, and (D) CHOP in response to 8 μM 7KCh with or without 1 μM long-chain fatty acids. Error bars indicate the standard deviations. *p<0.05 comparing to 7KCh, n=3. Two-tailed Student's t-test.
FIGS. 14A-14D depict mRNA expressions of (A) VEGF, (B) IL-1b, (C) IL-6, and (D) IL-8 in response to 8 μM 7KCh, 1 μM sterculic acid, 1 μM stearic acid, or the combinations of 7KCh with either sterculic acid or stearic acid. Error bars indicate the standard deviations. *p<0.05 comparing to 7KCh, n=4. Two-tailed Student's t-test.
FIGS. 15A-15D depict mRNA expressions of (A) TNF-α, (B) TGF-β1, (C) GRP78, and (D) CHOP in response to 8 μM 7KCh, 1 μM sterculic acid, 1 μM stearic acid, or the combinations of 7KCh with either sterculic acid or stearic acid. Error bars indicate the standard deviations. *p<0.05 comparing to 7KCh, n=3-4. Two-tailed Student's t-test.
as §1
The RNA was extracted using RNeasy Mini Kit (Qiagen, Valencia, Calif.). The reverse transcription was performed with reagents and kits from Invitrogen. Quantification of mRNA expression was performed using the Taqman gene expression assays and the following primers (VEGFa, Hs00173626_m1; IL-1β, Hs01555413_m1; IL-6, Hs00174131_m1; IL-8, Hs00174103_m1; IκBα, Hs00153283_m1; GRP78, Hs99999174_m1; CHOP, Hs01090850_m1; NOX2, Hs00166163_m1; NOX4, Hs01558199_m1; SCD, Hs00748952 s1; TNF-α, Hs00174128_m1; TGF-β1, Hs00998133_m1; GAPD, 4352934e). GAPD expression was used as an endogenous standard. All qRT-PCR experiments were measured in triplicates in an ABI 7500 Real-Time PCR Instrument (Applied Biosystems, Foster City, Calif.). The results of each treatment were normalized and presented in percentage relative to the vehicle-only control.

The term GI50 denotes the concentration giving 50% growth inhibition.

Take `CCCCCCCCC1=C(CCCCCCCC(=O)O)C1` [sterculic acid, 8-(2-octacyclopropen-1-yl)octanoic acid]: the “cell viability at 0.5 μM” value in the data set on ARPE-19 cells [1] (0.5 μM + 12 μM 7KCh, 24 hr) is “significantly increased cell viability”. Besides, the “morphological effects on the cells (images)” value with ARPE-19 cells [1] (1 μM + 12 μM 7KCh, 24 hr, FIG. 12C) is reported as “effectively protect”. Besides, in the data set on ARPE-19 cells [1] (12 μM 7KCh for 24 hr, tested 0.1, 0.5, 1, 5 and 10 μM), the “CONC. (μM): lowest concentration required to maintain full cell viability against 7KCh” value was determined as 1 µM. Also, in the data set on ARPE-19 cells [1] (12 μM 7KCh, 24 hr, 0.1-10 μM fatty acid), the “protective effect against 7KCh-mediated cell death” value is “by far the most effective compound”. This molecule also had a GI50 in the data set on Leukemia, HL-60 (TB) of 10 µM. Also, in the data set on ARPE19 cells [2], the “cell morphological changes compared to 7KCh alone” value was “much less proportion of dead cell and cell debris”. Moreover, the “cell viability relative to the level of untreated control (ATP level)” value in the data set on ARPE19 cells [3] was found to be 80%. In the data set on ARPE-19 cells [4] (1 μM fatty acid + 8 μM 7KCh, 24 hr, FIG. 13), the “effect on 7KCh-mediated mRNA induction (inflammatory response)” value is reported as “complete inhibition”. Also, the “effect of fatty acid alone on the mRNA expression of the cytokines” value with ARPE-19 cells [4] (1 μM fatty acid alone, no 7KCh, FIGS. 14, 15) is recorded as “no effect”. Besides, the “VEGF mRNA expression” value with ARPE-19 cells [4] (8 μM 7KCh alone or with 1 μM fatty acid, 24 hr, FIG. 13A) is reported as “basal levels”. Besides, the “IL-6 mRNA expression” value in the data set on ARPE-19 cells [4] (8 μM 7KCh alone or with 1 μM fatty acid, 24 hr, FIG. 13B) is “basal levels”. Besides, the “GRP78 mRNA expression” value with ARPE-19 cells [4] (8 μM 7KCh alone or with 1 μM fatty acid, 24 hr, FIG. 13C) is reported as “basal levels”. Besides, in the data set on ARPE-19 cells [4] (8 μM 7KCh alone or with 1 μM fatty acid, 24 hr, FIG. 13D), the “CHOP mRNA expression” value was “basal levels”. Also, in the data set on ARPE-19 cells [4] (8 μM 7KCh alone or with 1 μM fatty acid, FIG. 14A), the “induction of VEGF mRNA” value was 2.5 fold. Further, the “induction of IL-1β mRNA” value in the data set with ARPE-19 cells [4] (8 μM 7KCh alone or with 1 μM fatty acid, FIG. 14B) turned out to be 3.9 fold. In addition, in the data set with ARPE-19 cells [4] (8 μM 7KCh alone or with 1 μM fatty acid, FIG. 14C), the “induction of IL-6 mRNA” value is on record as 5.1 fold. In the data set on ARPE-19 cells [4] (8 μM 7KCh alone or with 1 μM fatty acid, FIG. 14D), the “induction of IL-8 mRNA” value was 1.8 fold. Moreover, the “induction of TNF-α mRNA” value in the data set on ARPE-19 cells [4] (8 μM 7KCh alone or with 1 μM fatty acid, FIG. 15A) came out at 1.5 fold. Also, in the data set on ARPE-19 cells [4] (8 μM 7KCh alone or with 1 μM fatty acid, FIG. 15B), the “induction of TGF-β1 mRNA” value came to 1 fold. Also, the “induction of GRP78 mRNA” value in the data set on ARPE-19 cells [4] (8 μM 7KCh alone or with 1 μM fatty acid, FIG. 15C) was determined as 1.3 fold. In the data set on ARPE-19 cells [4] (8 μM 7KCh alone or with 1 μM fatty acid, FIG. 15D), the “induction of CHOP mRNA” value was 4.1 fold.
